Assay results taken from patent publication EP4563146A1 (IRBM S.P.A., priority 2023, dated 2025).
Read-outs that look alike come from different tables or passages of the source.

Experiments:
[1] = molecular target: T1, West Nile Virus (WNV) NS2B-NS3 protease (West Nile virus, UniProt Q9Q6P4); experiment: WNV protease inhibition assay; format: biochemical; details: Table 4; letter codes for IC50
T1 construct: NS2B1423-1470); purchased R&D 2907-SE-020
Excerpt: WNV protease inhibition assay

[2] = tested on: ZIKV replicon; experiment: ZIKV replication inhibition assay (NanoLuc replicon in Vero cells); details: 72 h
[3] = Zika virus, Vero, read-out: ZIKA Cell_Nanoluc
[4] = Zika virus, Vero, read-out: ZIKA Cell_Nanoluc, Vero cells with stable ZIKV replicon, 72 h, Nano-Glo readout

T1 sequence (Q9Q6P4 1423-1470): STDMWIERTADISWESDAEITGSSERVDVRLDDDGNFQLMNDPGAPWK
T1 sequence (Q9Q6P4 1506-1689): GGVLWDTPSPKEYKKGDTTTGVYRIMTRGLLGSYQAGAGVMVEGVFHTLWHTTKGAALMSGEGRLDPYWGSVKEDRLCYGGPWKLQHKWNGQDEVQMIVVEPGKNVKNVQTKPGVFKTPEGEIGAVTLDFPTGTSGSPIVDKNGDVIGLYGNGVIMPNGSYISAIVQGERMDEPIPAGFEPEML

Compound	EC50 [2, 3] [µM]	EC50 [2, 4] [µM]	also measured
CN(C)C[C@H]1CC[C@H]([n+]2cc([N-]C(=O)Nc3cc(NC(=O)Cc4ccc(C(=O)O)cc4)cc(C(F)(F)F)c3)on2)CC1 [Example 156, ((3-(2-(4-Carboxyphenyl)acetamido)-5-(trifluoromethyl)phenyl)carbamoyl)(3-((1R,4R)-4-((dimethylamino)methyl)cyclohexyl)-1,2,3-oxadiazol-3-ium-5-yl)amide]			IC50 [1]: 1 to 20 µM; EC50 ([2]; read-out: ZIKA Cell_Nanoluc, Vero cells with stable ZIKV replicon, Nano-Glo readout): 1 to 20 µM
O=C([N-]c1c[n+](Cc2ccccn2)no1)Nc1cc(NC(=O)c2ccc(CN3CCOCC3)o2)cc(C(F)(F)F)c1 [Example 30]	1 to 20		
O=C(Cc1cccc2cn[nH]c12)Nc1cc(NC(=O)[N-]c2c[n+](Cc3ccccn3)no2)cc(C(F)(F)F)c1 [Example 126, ((3-(2-(1H-Indazol-7-yl)acetamido)-5-(trifluoromethyl)phenyl)carbamoyl)(3-(pyridin-2-ylmethyl)-1,2,3-oxadiazol-3-ium-5-yl)amide]		> 20	
O=C(Cc1ccccc1)Nc1cc(NC(=O)[N-]c2c[n+](Cc3ccc(C(=O)O)cc3)no2)cc(C(F)(F)F)c1 [Example 101, (3-(4-Carboxybenzyl)-1,2,3-oxadiazol-3-ium-5-yl)((3-(2-phenylacetamido)-5-(trifluoromethyl)phenyl)carbamoyl)amide]		> 20	
COC(=O)c1ccc(C[n+]2cc([N-]C(=O)Nc3cc(NC(=O)Cc4ccccc4)cc(C(F)(F)F)c3)on2)cc1 [Example 98, (3-(4-(Methoxycarbonyl)benzyl)-1,2,3-oxadiazol-3-ium-5-yl)((3-(2-phenyl-acetamido)-5-(trifluoromethyl)phenyl)carbamoyl)amide]		1 to 20	
O=C(CC1CC2CC1C2)Nc1cc(NC(=O)[N-]c2c[n+](Cc3ccccn3)no2)cc(C(F)(F)F)c1 (centres unmarked) [Example 63, ((3-(2-(Bicyclo[2.1.1]hexan-2-yl)acetamido)-5-(trifluoromethyl)phenyl)carbamoyl)(3-(pyridin-2-ylmethyl)-1,2,3-oxadiazol-3-ium-5-yl)amide]		1 to 20	
Cc1ccc(CN2CCC(C(=O)Nc3cc(NC(=O)[N-]c4c[n+](Cc5ccccn5)no4)cc(C(F)(F)F)c3)CC2)o1 [Example 70]	> 20		
O=C([N-]c1c[n+](Cc2ccccn2)no1)Nc1cc(NC(=O)c2cccc(Oc3ccccc3)c2)cc(C(F)(F)F)c1 [Example 31]	1 to 20		
O=C(CS(=O)(=O)c1ccccc1)Nc1cc(NC(=O)[N-]c2c[n+](Cc3ccccn3)no2)cc(C(F)(F)F)c1 [Example 43]	1 to 20		
O=C(CCCCS(=O)(=O)N1CCCCC1)Nc1cc(NC(=O)[N-]c2c[n+](Cc3ccccn3)no2)cc(C(F)(F)F)c1 [Example 82]	> 20		
NCC12CC(C[n+]3cc([N-]C(=O)Nc4cc(NC(=O)Cc5ccccc5)cc(C(F)(F)F)c4)on3)(C1)C2 [Example 103]	> 20		
COc1ncc(-c2ccc(C[n+]3cc([N-]C(=O)Nc4cc(NC(=O)Cc5ccccc5)cc(C(F)(F)F)c4)on3)nc2)c(C)n1 [Example 13, (3-((5-(2-Methoxy-4-methylpyrimidin-5-yl)pyridin-2-yl)methyl)-1,2,3-oxadiazol-3-ium-5-yl)((3-(2-phenylacetamido)-5-(trifluoromethyl)phenyl)carbamoyl)amide]		0.1 to 1	
O=C(Cc1ccccc1)Nc1cc(NC(=O)[N-]c2c[n+](C3CCNCC3)no2)cc(C(F)(F)F)c1 [Example 99, ((3-(2-Phenylacetamido)-5-(trifluoromethyl)-phenyl)carbamoyl)(3-(piperidin-4-yl)-1,2,3-oxadiazol-3-ium-5-yl)amide]		1 to 20	
O=C(Cc1ccccc1)Nc1cc(NC(=O)[N-]c2c[n+](CC3CC(NCc4ccc(O)cn4)C3)no2)cc(C(F)(F)F)c1 (centres unmarked) [Example 134, (3-((3-(((5-Hydroxypyridin-2-yl)methyl)amino)-cyclobutyl)methyl)-1,2,3-oxadiazol-3-ium-5-yl)((3-(2-phenylacetamido)-5-(trifluoromethyl)-phenyl)carbamoyl)amide]		> 20	
O=C([N-]c1c[n+](Cc2ccccn2)no1)Nc1cc(NC(=O)[C@H]2C[C@](O)(c3ccccn3)C2)cc(C(F)(F)F)c1 [Example 69]	> 20		
COC(=O)c1ccc(C[n+]2cc([N-]C(=O)Nc3cc(NC(=O)Cc4ccccc4)cc(C4CC4)c3)on2)nc1 [Example 128, ((3-Cyclopropyl-5-(2-phenylacetamido)phenyl)-carbamoyl)(3-((5-(methoxycarbonyl)pyridin-2-yl)methyl)-1,2,3-oxadiazol-3-ium-5-yl)amide]		1 to 20	
O=C(Cc1ccccc1)Nc1cc(NC(=O)[N-]c2c[n+](Cc3cccc(CN4C(=O)c5ccccc5C4=O)c3)no2)cc(C(F)(F)F)c1 [Example 107, (3-(3-((1,3-Dioxoisoindolin-2-yl)methyl)benzyl)-1,2,3-oxadiazol-3-ium-5-yl)((3-(2-phenylacetamido)-5-(trifluoromethyl)phenyl)carbamoyl)amide]		1 to 20	

Compound	EC50 [2, 3] [µM]	EC50 [2, 4] [µM]	also measured
O=C(Cc1ccccc1)Nc1cc(NC(=O)[N-]c2c[n+](Cc3ccc(CO)cn3)no2)cc(C(F)(F)F)c1 [Example 116, (3-((5-(Hydroxymethyl)pyridin-2-yl)methyl)-1,2,3-oxadiazol-3-ium-5-yl)((3-(2-phenylacetamido)-5-(trifluoromethyl)phenyl)carbamoyl)amide]		1 to 20	
O=C(Cc1ccc(=O)[nH]c1)Nc1cc(NC(=O)[N-]c2c[n+](Cc3ccccn3)no2)cc(C(F)(F)F)c1 [Example 123, ((3-(2-(6-Oxo-1,6-dihydropyridin-3-yl)acetamido)-5-(trifluoromethyl)phenyl)-carbamoyl)(3-(pyridin-2-ylmethyl)-1,2,3-oxadiazol-3-ium-5-yl)amide]		> 20	
Cn1cncc1-c1ccc(C[n+]2cc([N-]C(=O)Nc3cc(NC(=O)Cc4ccccc4)cc(C(F)(F)F)c3)on2)nc1 [Example 6, (3-((5-(1-Methyl-1H-imidazol-5-yl)pyridin-2-yl)methyl)-1,2,3-oxadiazol-3-ium-5-yl)((3-(2-phenylacetamido)-5-(trifluoromethyl)phenyl)carbamoyl)amide]		1 to 20	
COc1ncc(-c2ccc(C[n+]3cc([N-]C(=O)Nc4cc(NC(=O)Cc5cccnc5)cc(C(F)(F)F)c4)on3)cc2)c(C)n1 [Example 19, (3-(4-(2-Methoxy-4-methylpyrimidin-5-yl)benzyl)-1,2,3-oxadiazol-3-ium-5-yl)((3-(2-(pyridin-3-yl)acetamido)-5-(trifluoromethyl)phenyl)carbamoyl)amide]		1 to 20	
O=C(Cc1cc(NC(=O)[N-]c2c[n+](Cc3ccccn3)no2)cc(C(F)(F)F)c1)NCc1ccccc1 [Example 90, ((3-(2-(Benzylamino)-2-oxoethyl)-5-(trifluoromethyl)phenyl)carbamoyl)(3-(pyridin-2-ylmethyl)-1,2,3-oxadiazol-3-ium-5-yl)amide]		1 to 20	
O=C([N-]c1c[n+](Cc2ccccn2)no1)Nc1cc(NC(=O)c2ccc3[nH]cnc3c2)cc(C(F)(F)F)c1 [Example 29, ((3-(1H Benzo[d]imidazole-5-carboxamido)-5-(trifluoromethyl)phenyl)-carbamoyl)(3-(pyridin-2-ylmethyl)-1,2,3-oxadiazol-3-ium-5-yl)amide]		1 to 20	
CN1CCCCC1C[n+]1cc([N-]C(=O)Nc2cc(NC(=O)Cc3ccccc3)cc(C(F)(F)F)c2)on1 (centres unmarked) [Example 105, (3-((1-Methylpiperidin-2-yl)methyl)-1,2,3-oxadiazol-3-ium-5-yl)((3-(2-phenylacetamido)-5-(trifluoromethyl)phenyl)carbamoyl)amide]		0.1 to 1	
COc1ncc(-c2ccc(C[n+]3cc([N-]C(=O)Nc4cc(NC(=O)Cc5ccccc5Cl)cc(C(F)(F)F)c4)on3)cc2)c(C)n1 [Example 21, ((3-(2-(2-Chlorophenyl)acetamido)-5-(trifluoromethyl)phenyl)carbamoyl)(3-(4-(2-methoxy-4-methylpyrimidin-5-yl)benzyl)-1,2,3-oxadiazol-3-ium-5-yl)amide]		0.1 to 1	
O=C([N-]c1c[n+](Cc2ccccn2)no1)Nc1cc(NC(=O)C2CC(Cc3ccccc3)C2)cc(C(F)(F)F)c1 (centres unmarked) [Example 68]	1 to 20		
N#Cc1ccc2nc(C(=O)Nc3cc(NC(=O)[N-]c4c[n+](Cc5ccccn5)no4)cc(C(F)(F)F)c3)cn2c1 [Example 37]	1 to 20		
Cc1cc(NC(=O)Cc2ccccc2)cc(NC(=O)[N-]c2c[n+](Cc3ccccn3)no2)c1 [Example 57, ((3-Methyl-5-(2-phenylacetamido)phenyl)carbamoyl)(3-(pyridin-2-ylmethyl)-1,2,3-oxadiazol-3-ium-5-yl)amide]		> 20	
O=C([N-]c1c[n+](Cc2ccccn2)no1)Nc1cc(NC(=O)c2ccn3c2COCC3)cc(C(F)(F)F)c1 [Example 81, ((3-(3,4-Dihydro-1H-pyrrolo[2,1-c][1,4]oxazine-8-carboxamido)-5-(trifluoromethyl)-phenyl)carbamoyl)(3-(pyridin-2-ylmethyl)-1,2,3-oxadiazol-3-ium-5-yl)amide]		1 to 20	
O=C([N-]c1c[n+](Cc2ccccn2)no1)Nc1cc(NC(=O)c2cnccn2)cc(C(F)(F)F)c1 [Example 45]	1 to 20		
O=C(Cc1ccccc1)Nc1cc(NC(=O)[N-]c2c[n+](Cc3ccc(-c4cccc5c4CNC5)cn3)no2)cc(C(F)(F)F)c1 [Example 14, (3-((5-(Isoindolin-4-yl)pyridin-2-yl)methyl)-1,2,3-oxadiazol-3-ium-5-yl)((3-(2-phenylacetamido)-5-(trifluoromethyl)phenyl)carbamoyl)amide]		1 to 20	
O=C([N-]c1c[n+](Cc2ccccn2)no1)Nc1cc(NC(=O)C2Cc3ccccc32)cc(C(F)(F)F)c1 (centres unmarked) [Example 47]	1 to 20		
CN1CC(C(=O)Nc2cc(NC(=O)[N-]c3c[n+](Cc4ccccn4)no3)cc(C(F)(F)F)c2)C1 [Example 49]	1 to 20		
O=C([N-]c1c[n+](Cc2ccccn2)no1)Nc1cc(NC(=O)C2CN(C3CC3)C2)cc(C(F)(F)F)c1 [Example 77]	> 20		
